Here are results for 54 compounds from patent publication US9868746B2, “Substituted 5-aminothieno[2,3-C]pyridazine-6-carboxamide analogs as positive allosteric modulators of the muscarinic acetylcholine receptor M4” (Vanderbilt University, priority 2012, dated 2018).

The target in this assay is T1, mAChR M4 (Homo sapiens, UniProt P08173).
T1 construct: expressed in transfected cells; host or cells: CHO-K1 cells stably transfected with M4 cDNA and chimeric G-protein Gqi5
T1 sequence (P08173 1-479): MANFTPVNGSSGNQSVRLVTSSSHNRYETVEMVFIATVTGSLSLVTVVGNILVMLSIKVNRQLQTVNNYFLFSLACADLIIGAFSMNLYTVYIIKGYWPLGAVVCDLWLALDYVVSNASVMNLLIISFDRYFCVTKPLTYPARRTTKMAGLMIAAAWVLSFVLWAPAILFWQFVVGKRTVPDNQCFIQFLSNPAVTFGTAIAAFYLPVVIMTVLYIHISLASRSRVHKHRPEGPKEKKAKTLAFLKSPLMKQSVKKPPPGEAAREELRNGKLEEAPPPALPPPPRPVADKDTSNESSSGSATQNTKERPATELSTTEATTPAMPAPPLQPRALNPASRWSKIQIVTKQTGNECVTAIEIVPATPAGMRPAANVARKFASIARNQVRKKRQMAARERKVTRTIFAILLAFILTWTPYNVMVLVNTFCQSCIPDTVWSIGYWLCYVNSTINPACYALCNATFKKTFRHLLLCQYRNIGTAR
Kind of assay: mAChR M4 cell-based functional assay (calcium mobilization, potentiation of EC20 acetylcholine response). The conditions noted are these: for Emax at 30 µM / Emax (%)*: % ACh maximum at 30 μM; for EC50: mAChR M4 cell-based functional assay, >10,000 estimated for low potency compounds without plateau, read-out: EC50.

For `Cc1nnc2sc(C(=O)NC3CCN(S(C)(=O)=O)C3)c(N)c2c1C` (centres unmarked) [Example B252], the Emax at 30 µM worked out at 83% and the EC50 is 1.7 µM. For `Cc1nnc2sc(C(=O)NCCN(C)S(=O)(=O)c3ccc(F)cc3)c(N)c2c1C` [Example B358], the Emax at 30 µM amounted to 49% and the EC50 was 4.5 µM. The corresponding values for `Cc1nnc2sc(C(=O)NC3CN(C(=O)Oc4cccc(N=[N+]=[N-])c4)C3)c(N)c2c1C` [Example B424] are 68% and 0.0079 µM. With `Cc1nnc2sc(C(=O)NC3CCN(C(=O)C4CCCCC4)C3)c(N)c2c1C` (centres unmarked) [Example B226], the Emax at 30 µM amounted to 84% and the EC50 is 0.43 µM. Consider `Cc1nnc2sc(C(=O)NCc3ccc(F)cc3)c(N)c2c1C` [Example B435], for which the Emax at 30 µM is 68% and the EC50 was 0.18 µM. The like results for `Cc1nnc2sc(C(=O)N3CC(NC(=O)C4CCCCC4)C3)c(N)c2c1C` [Example B185] were, in that order, 54% and 1.8 µM. The corresponding values for `COc1ccc(C(=O)N2CC(NC(=O)c3sc4nnc(C)c(C)c4c3N)C2)c(OC)c1` [Example B161] are 61% and 0.2 µM. Take `COC1(c2ccccc2)CN(C(=O)c2sc3nnc(C)c(C)c3c2N)C1` [Example B170]: the Emax at 30 µM turned out to be 60% and the EC50 was 0.47 µM. The like results for `Cc1nnc2sc(C(=O)NCc3ccc4c(c3)OCO4)c(N)c2c1C` [Example B12] were, in that order, 90% and 0.093 µM.

Take `Cc1nnc2sc(C(=O)NCCN(C)S(=O)(=O)c3ccccc3)c(N)c2c1C` [Example B375]: the Emax at 30 µM is 51% and the EC50 was 4 µM. Take `Cc1nnc2sc(C(=O)NCCc3ccncc3)c(N)c2c1C` [Example B93]: the Emax at 30 µM amounted to 49% and the EC50 is 2.3 µM.

As for `Cc1nnc2sc(C(=O)NCc3cc(F)c(F)cc3F)c(N)c2c1C` [Example B45], the Emax at 30 µM stood at 71% and the EC50 was 0.045 µM. The like results for `Cc1nnc2sc(C(=O)NCc3ccc(S(=O)(=O)c4ccccc4)cc3)c(N)c2c1C` [Example B505] were, in that order, 63% and 0.11 µM.

As to `Cc1nnc2sc(C(=O)N3CCC(NC(=O)c4ccncc4)C3)c(N)c2c1C` (centres unmarked) [Example B204], the Emax at 30 µM was determined as 64% and the EC50 was 5 µM.

`Cc1nnc2sc(C(=O)N3CC(NS(=O)(=O)c4cccc5ncccc45)C3)c(N)c2c1C` [Example B180]: the Emax at 30 µM was 43% and the EC50 was 1.1 µM. With `Cc1nnc2sc(C(=O)N3CC(S(=O)(=O)c4ccc(F)c(F)c4)C3)c(N)c2c1C` [Example B415], the Emax at 30 µM stood at 44% and the EC50 was 1.3 µM. Consider `Cc1nnc2sc(C(=O)NCc3ccc(S(=O)(=O)C(F)(F)F)cc3)c(N)c2c1C` [Example B66], for which the Emax at 30 µM was 62%.

With `Cc1cccc(N2CCC(NC(=O)c3sc4nnc(C)c(C)c4c3N)C2)c1` (centres unmarked) [Example B265], the Emax at 30 µM came to 60% and the EC50 is 0.12 µM.

As for `Cc1nnc2sc(C(=O)NC3CN(C(=O)c4ccccc4F)C3)c(N)c2c1C` [Example B396], the Emax at 30 µM came to 70% and the EC50 is 0.2 µM.

For `Cc1nnc2sc(C(=O)N3CCC(NS(=O)(=O)c4cncn4C)C3)c(N)c2c1C` (centres unmarked) [Example B202], the Emax at 30 µM turned out to be 69% and the EC50 is 3.8 µM.

Regarding `Cc1nnc2sc(C(=O)NCCNC(=O)Oc3ccccc3)c(N)c2c1C` [Example B374], the “Emax (%)*” value stood at 33% and the EC50 was above 10 µM. `Cc1nnc2sc(C(=O)NC3CN(C(=O)c4ccc(OC(F)(F)F)cc4)C3)c(N)c2c1C` [Example B409]: the Emax at 30 µM was 65% and the half-maximal effective concentration (EC50) was 0.12 µM.

For `COc1ccc(CNC(=O)c2sc3nnc(C)c(C)c3c2N)cc1C(F)(F)F` [Example B171], the Emax at 30 µM was found to be 71% and the EC50 was 0.023 µM. The corresponding values for `Cc1nnc2sc(C(=O)NCC3CC3)c(N)c2c1C` [Example B6] are 89% and 0.5 µM. Regarding `Cc1nnc2sc(C(=O)NCCN(C)C(=O)c3ccc(F)cc3)c(N)c2c1C` [Example B357], the Emax at 30 µM came to 27% and the EC50 was above 10 µM. The like results for `Cc1nnc2sc(C(=O)N3CC(F)(c4ccc(-c5cncnc5)cc4)C3)c(N)c2c1C` [Example B326] were, in that order, 50% and 0.39 µM. The corresponding values for `CCCCCC(=O)NC1CCN(C(=O)c2sc3nnc(C)c(C)c3c2N)C1` (centres unmarked) [Example B218] are 61% and 5 µM. The like results for `Cc1nnc2sc(C(=O)NCc3ccc(C#N)cc3)c(N)c2c1C` [Example B431] were, in that order, 56% and 0.12 µM. As for `Cc1nnc2sc(C(=O)N3CC(Sc4ccc(F)c(F)c4)C3)c(N)c2c1C` [Example B414], the Emax at 30 µM worked out at 63% and the EC50 is 0.34 µM. As for `Cc1nnc2sc(C(=O)NC3CN(S(=O)(=O)c4ccoc4)C3)c(N)c2c1C` [Example B100], the Emax at 30 µM was 68% and the EC50 was 0.18 µM. Consider `Cc1nnc2sc(C(=O)N3CC(Sc4ccccc4)C3)c(N)c2c1C` [Example B405], for which the Emax at 30 µM is 46% and the EC50 was 0.092 µM.

`Cc1nnc2sc(C(=O)NC3CN(c4cccnc4)C3)c(N)c2c1C` [Example B479]: the Emax at 30 µM came out at 67% and the EC50 is 0.012 µM.

In the case of `COc1cc(CNC(=O)c2sc3nnc(C)c(C)c3c2N)ccn1` [Example B289], the Emax at 30 µM is 69% and the EC50 was 0.23 µM. The like results for `Cc1nnc2sc(C(=O)NCc3ccc4c(c3)OCCO4)c(N)c2c1C` [Example B29] were, in that order, 76% and 0.03 µM. The like results for `Cc1nnc2sc(C(=O)N3CC4CN(C(=O)c5ccc(F)cc5)CC4C3)c(N)c2c1C` (centres unmarked) [Example B331] were, in that order, 58% and 3.6 µM. For `Cc1nnc2sc(C(=O)N3CC(NC(=O)CCc4ccccc4)C3)c(N)c2c1C` [Example B177], the Emax at 30 µM stood at 53% and the EC50 is 0.97 µM.

As to `Cc1nnc2sc(C(=O)N3CCC(NC(=O)c4ccccc4)C3)c(N)c2c1C` (centres unmarked) [Example B246], the Emax at 30 µM was 78% and the EC50 was 4.6 µM. For the compound `Cc1nnc2sc(C(=O)N3CCC(NS(C)(=O)=O)C3)c(N)c2c1C` (centres unmarked) [Example B256], the Emax at 30 µM amounted to 65% and the EC50 was above 10 µM. `Cc1nnc2sc(C(=O)NC3CN(C(=O)Oc4ccc(Cl)cc4)C3)c(N)c2c1C` [Example B355]: the Emax at 30 µM was 58% and the EC50 is 0.016 µM. The like results for `Cc1nnc2sc(C(=O)NCc3ccc([S+]([O-])C(F)F)c(F)c3)c(N)c2c1C` (centres unmarked) [Example B465] were, in that order, 61% and 0.015 µM.

As for `Cc1nnc2sc(C(=O)N3CC(Br)(c4ccccc4)C3)c(N)c2c1C` [Example B191], the Emax at 30 µM amounted to 45% and the EC50 was 2.1 µM. The like results for `Cc1nnc2sc(C(=O)N3CC(F)(c4cccc(-c5cnn(C)c5)c4)C3)c(N)c2c1C` [Example B325] were, in that order, 62% and 0.59 µM.

In the case of `Cc1nnc2sc(C(=O)NC3CN(Cc4ccc(F)cc4)C3)c(N)c2c1C` [Example B46], the Emax at 30 µM came to 38% and the EC50 is above 10 µM.

On to `Nc1c(C(=O)NCc2cccc(F)c2)sc2nnccc12` [Example B21], for which the Emax at 30 µM stood at 59% and the EC50 was above 10 µM.

As for `Cc1nnc2sc(C(=O)N3CCC(c4ccccc4)C3)c(N)c2c1C` (centres unmarked) [Example B112], the Emax at 30 µM was 61% and the EC50 was 0.63 µM. The like results for `Cc1nnc2sc(C(=O)NCc3ccc(-c4ccc5nccnc5c4)cc3)c(N)c2c1C` [Example B496] were, in that order, 66% and 0.25 µM. The like results for `Cc1nnc2sc(C(=O)NCc3ccc4c(c3)OC(F)(F)O4)c(N)c2c1C` [Example B42] were, in that order, 76% and 0.026 µM.

Turning to `Nc1c(C(=O)NC2CC2)sc2nnccc12` [Example B1], the Emax at 30 µM came to 40% and the EC50 was above 10 µM.

Consider `Cc1ccccc1OC(=O)N1CC(NC(=O)c2sc3nnc(C)c(C)c3c2N)C1` [Example B361], for which the Emax at 30 µM turned out to be 76% and the EC50 is 0.011 µM.

Regarding `COc1ccc(-c2ccc(CNC(=O)c3sc4nnc(C)c(C)c4c3N)cc2)cn1` [Example B486], the Emax at 30 µM came out at 61% and the EC50 was 0.23 µM.

Regarding `Cc1nnc2sc(C(=O)NCc3ccc(C(C)(O)C(F)(F)F)cc3)c(N)c2c1C` (single isomer, unassigned) [Example B187], the “Emax (%)*” value amounted to 84% and the EC50 is 0.02 µM. With `Cc1nnc2sc(C(=O)NC3CN(C(=O)Nc4ccc(OC(F)F)cc4)C3)c(N)c2c1C` [Example B363], the Emax at 30 µM was 74% and the EC50 is 0.027 µM. Turning to `Cc1nnc2sc(C(=O)N3CCC4(CCCC4)C3)c(N)c2c1C` [Example B381], the Emax at 30 µM was determined as 63% and the EC50 is 0.71 µM. With `COCCOCCNC(=O)c1sc2nnc(C)c(C)c2c1N` [Example B199], the Emax at 30 µM came to 52% and the EC50 was above 10 µM.

What is called Emax is the greatest response seen or fitted, relative to the assay's reference. Usually EC50 stands for the concentration that produces a half-maximal response.
